Consider 30 molecules from patent US20260022094A1, “Compounds for the Treatment of Neurodegenerative Diseases” (Celgene Corporation, priority 2022, published 2026).

SMILES strings stand for the structures.

This experiment has as its target T1, S1P5 receptors (Homo sapiens, UniProt Q9H228).
T1 construct: expressed in transfected cells; host or cells: CHO cells (membranes)
Kind of experiment: [35S]-GTPγS binding assay on CHO-S1P5 membranes (S1P5 agonism). The class given is biochemical. As to conditions: membranes of CHO cells expressing recombinant S1P5; measure of S1P5 agonism. As to the method:
CHO cells expressing recombinant S1P5 receptors were cultured in 500 cm^2 culture trays and, once confluent, rinsed and detached with cell-lifting buffer (10 mM HEPES, 154 mM NaCl, 6.85 mM EDTA, pH 7.4). Cells were then pelleted by centrifugation, resuspended, and homogenized in membrane preparation buffer (10 mM HEPES and 10 mM EDTA, pH 7.4) using a Polytron PT 1200E homogenizer (Kinematica, Luzern, Switzerland). Cellular proteins were pelleted by centrifugation at 48,000×g at 4° C. for 30 minutes. The resulting supernatant was discarded, and the pellet was re-suspended again in membrane preparation buffer, homogenized for a second time, and then centrifuged again as described above. The final cellular protein pellet was suspended in ice cold resuspension buffer (10 mM HEPES and 0.1 mM EDTA, pH 7.4), divided into aliquots, and stored at −80° C. until use.
Functional binding assays for [^35S]-GTPγS were performed in 96-well non-binding surface plates with a final volume of 200 μL. The test compounds were serially diluted in DMSO and added to assay plates using a Tecan D300E digital printer with a total volume of 0.4 μL. The control sphingosine-1-phosphate (SIP) was prepared separately by preparing a 400 µM stock solution from a 100 nmol pellet of S1P in 10 mM Na2CO3 with 2% β-cyclodextrin. The serial dilution of S1P was done using complete assay buffer (20 mM HEPES, 10 mM MgCl2, 100 mM NaCl, 1 mM EDTA, 0.1% fatty acid free bovine serum albumin (BSA), and 30 μg/mL saponin, pH 7.4) and transferred to wells already containing 0.4 μL DMSO. All the wells were then loaded to a total volume of 40 μL of complete assay buffer, except the non-specific binding (NSB) wells. For NSB wells, 40 μL/well of 50 μM GTPγS (Sigma Aldrich, cat #G8634, St. Louis, MO) was added to wells containing 0.4 μL of DMSO. The assay was started by the addition of 120 μL/well of CHO-SIP receptor membrane solution containing 40 μg/mL of membrane protein, 16.67 μM guanosine diphosphate (GDP; Sigma Aldrich, cat #G7127, St. Louis, MO), and 2.5 mg/mL of WGA PVT SPA beads in complete buffer. Assay plates were then sealed and incubated at room temperature with gentle agitation for 30 minutes. Next, 40 μL/well of 1 nM of [^35S]-GTPγS (PerkinElmer, cat #NEG030X^250UC, Waltham, MA) in basic assay buffer (20 mM HEPES, 10 mM MgCl2, 100 mM NaCl, and 1 mM EDTA, pH7.4) was added to the assay plates to yield a final concentration of […] and the plates were further incubated for 40 minutes at room temperature with gentle agitation. The assay was terminated by centrifugation of the plates at 1000 rpm for 3 minutes using an Eppendorf 5810R centrifuge (Eppendorf, Hamburg, Germany) and G protein bound radioactivity was quantitated using a MicroBeta2 microplate scintillation counter (PerkinElmer, Waltham, MA). As G protein bound radioactivity directly correlates to receptor activation and coupling to the G protein, this assay is a measure of S1P5 agonism.
Background: GTPγS is a poorly hydrolysed GTP analogue; its binding reports G protein activation.

T1 sequence (Q9H228 whole entry): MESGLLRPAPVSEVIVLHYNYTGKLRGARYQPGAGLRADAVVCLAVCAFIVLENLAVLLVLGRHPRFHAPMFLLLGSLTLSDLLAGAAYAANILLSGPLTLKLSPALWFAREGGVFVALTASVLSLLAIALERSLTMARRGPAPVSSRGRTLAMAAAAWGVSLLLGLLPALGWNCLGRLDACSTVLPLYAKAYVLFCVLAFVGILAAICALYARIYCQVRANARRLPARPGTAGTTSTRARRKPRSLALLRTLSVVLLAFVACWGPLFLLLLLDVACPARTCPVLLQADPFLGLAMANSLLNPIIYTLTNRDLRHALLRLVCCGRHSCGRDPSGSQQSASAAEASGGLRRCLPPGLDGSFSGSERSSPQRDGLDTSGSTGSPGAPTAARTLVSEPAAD

What is called EC50 is the concentration that produces a half-maximal response. On to `Cc1cc(N2CC(c3c(Cl)cccc3Cl)C2)cc(C)c1CN1CCC(C)(O)CC1` [Compound 36, 1-(4-(3-(2,6-dichlorophenyl)azetidin-1-yl)-2,6-dimethylbenzyl)-4-methylpiperidin-4-ol], for which the EC50 was in the range of 100 to 1000 nM.

As for `Cc1cc(N2CC(c3c(Cl)cccc3Cl)C2)cc(C)c1CN1CC(C)(O)C1` [Compound 37, 1-(4-(3-(2,6-dichlorophenyl)azetidin-1-yl)-2,6-dimethylbenzyl)-3-methylazetidin-3-ol], the EC50 is 1 to 10 nM.

Regarding `CCC1(O)CN(Cc2c(C)cc(C3CN(c4c(Cl)cccc4Cl)C3)cc2C)C1` [Compound 38, 1-(4-(1-(2,6-dichlorophenyl)azetidin-3-yl)-2,6-dimethylbenzyl)-3-ethylazetidin-3-ol], the EC50 lay in the range of 100 to 1000 nM.

Turning to `Cc1cc(C2CN(c3c(Cl)cccc3Cl)C2)cc(C)c1CN1CC(O)(CF)C1` [Compound 39, 1-(4-(1-(2,6-dichlorophenyl)azetidin-3-yl)-2,6-dimethylbenzyl)-3-(fluoromethyl) azetidin-3-ol], the EC50 fell in the range of 100 to 1000 nM.

`Cc1cc(C2CN(c3c(Cl)cccc3Cl)C2)cc(C)c1CN1CC(O)(C(F)F)C1` [Compound 40, 1-(4-(1-(2,6-dichlorophenyl)azetidin-3-yl)-2,6-dimethylbenzyl)-3-(difluoromethyl) azetidin-3-ol]: the EC50 fell in the range of 100 to 1000 nM.

Consider `Cc1cc(C2CN(c3c(Cl)cccc3Cl)C2)cc(C)c1CN1CC(O)(C(F)(F)F)C1` [Compound 41, 1-(4-(1-(2,6-dichlorophenyl)azetidin-3-yl)-2,6-dimethylbenzyl)-3-(trifluoromethyl) azetidin-3-ol], for which the concentration giving a half-maximal response (EC50) lay within 100 to 1000 nM.

Turning to `Cc1cc(C2CN(c3c(F)cccc3F)C2)cc(C)c1CN1CC(C)(O)C1` [Compound 42, 1-(4-(1-(2,6-difluorophenyl)azetidin-3-yl)-2,6-dimethylbenzyl)-3-methylazetidin-3-ol], the EC50 was 10 to 100 nM.

Turning to `Cc1cc(C2CN(c3ccccc3)C2)cc(C)c1CN1CC(C)(O)C1` [Compound 43, 1-(2,6-dimethyl-4-(1-phenylazetidin-3-yl)benzyl)-3-methylazetidin-3-ol], the EC50 is 1000 to 10000 nM.

Turning to `Cc1cc(C2CN(c3ccccc3F)C2)cc(C)c1CN1CC(C)(O)C1` [Compound 44, 1-(4-(1-(2-fluorophenyl)azetidin-3-yl)-2,6-dimethylbenzyl)-3-methylazetidin-3-ol], the concentration giving a half-maximal response (EC50) lay in the range of 1000 to 10000 nM.

With `Cc1cc(C2CN(c3cccc(F)c3)C2)cc(C)c1CN1CC(C)(O)C1` [Compound 45, 1-(4-(1-(3-fluorophenyl)azetidin-3-yl)-2,6-dimethylbenzyl)-3-methylazetidin-3-ol], the half-maximal effective concentration (EC50) lay within 1000 to 10000 nM.

Turning to `Cc1cc(C2CN(c3ccc(C4CC4)c(Cl)c3)C2)cc(C)c1CN1CC(C)(O)C1` [Compound 46, 1-(4-(1-(3-chloro-4-cyclopropylphenyl)azetidin-3-yl)-2,6-dimethylbenzyl)-3-methylazetidin-3-ol], the EC50 lay within 100 to 1000 nM.

For `Cc1cc(C2CN(c3c(Cl)cccc3Cl)C2)cc(F)c1CN1CC(C)(O)C1` [Compound 48, 1-(4-(1-(2,6-dichlorophenyl)azetidin-3-yl)-2-fluoro-6-methylbenzyl)-3-methylazetidin-3-ol], the EC50 was in the range of 10 to 100 nM.

Regarding `Cc1cc(C2CN(c3c(Cl)cccc3Cl)C2)cc(Cl)c1CN1CC(C)(O)C1` [Compound 49, 1-(2-chloro-4-(1-(2,6-dichlorophenyl)azetidin-3-yl)-6-methylbenzyl)-3-methylazetidin-3-ol], the EC50 was 10 to 100 nM.

On to `CC1(O)CN(Cc2ccc(C3CN(c4c(Cl)cccc4Cl)C3)cc2C2CC2)C1` [Compound 50, 1-(2-cyclopropyl-4-(1-(2,6-dichlorophenyl)azetidin-3-yl)benzyl)-3-methylazetidin-3-ol], for which the EC50 fell in the range of 10 to 100 nM.

As to `CCc1cc(C2CN(c3c(Cl)cccc3Cl)C2)cc(C)c1CN1CC(C)(O)C1` [Compound 51, 1-(4-(1-(2,6-dichlorophenyl)azetidin-3-yl)-2-ethyl-6-methylbenzyl)-3-methylazetidin-3-ol], the EC50 lay in the range of 10 to 100 nM.

On to `CCc1cc(C2CN(c3c(Cl)cccc3Cl)C2)cc(CC)c1CN1CC(C)(O)C1` [Compound 52, 1-(4-(1-(2,6-dichlorophenyl)azetidin-3-yl)-2,6-diethylbenzyl)-3-methylazetidin-3-ol], for which the EC50 lay in the range of 100 to 1000 nM.

On to `CC(C)c1cc(C2CN(c3c(Cl)cccc3Cl)C2)cc(C(C)C)c1CN1CC(C)(O)C1` [Compound 53, 1-(4-(1-(2,6-dichlorophenyl)azetidin-3-yl)-2,6-diisopropylbenzyl)-3-methylazetidin-3-ol], for which the EC50 was in the range of 1000 to 10000 nM.

`Cc1cc(C2CN(c3c(Cl)cccc3Cl)C2)cc(C2CC2)c1CN1CC(C)(O)C1` [Compound 54, 1-(2-cyclopropyl-4-(1-(2,6-dichlorophenyl)azetidin-3-yl)-6-methylbenzyl)-3-methylazetidin-3-ol]: the EC50 fell in the range of 10 to 100 nM.

On to `CC1(O)CN(Cc2ccc(C3CN(c4c(Cl)cccc4Cl)C3)c3ccccc23)C1` [Compound 55, 1-((4-(1-(2,6-dichlorophenyl)azetidin-3-yl)naphthalen-1-yl)methyl)-3-methylazetidin-3-ol], for which the EC50 was 10 to 100 nM.

Consider `Cc1cc(C2CN(c3c(Cl)cccc3Cl)C2)c(C)cc1CN1CC(C)(O)C1` [Compound 56, 1-(4-(1-(2,6-dichlorophenyl)azetidin-3-yl)-2,5-dimethylbenzyl)-3-methylazetidin-3-ol], for which the EC50 was 10 to 100 nM.

Regarding `Cc1cc(CN2CC(C)(O)C2)cc(C)c1C1CN(c2c(Cl)cccc2Cl)C1` [Compound 57, 1-(4-(1-(2,6-dichlorophenyl)azetidin-3-yl)-3,5-dimethylbenzyl)-3-methylazetidin-3-ol], the EC50 lay within 10 to 100 nM.

For the molecule `CC1(O)CN(Cc2ccc(C3CN(c4c(Cl)cccc4Cl)C3)nc2)C1` [Compound 58, 1-((6-(1-(2,6-dichlorophenyl)azetidin-3-yl)pyridin-3-yl)methyl)-3-methylazetidin-3-ol], the EC50 was 1000 to 10000 nM.

Regarding `CC1(O)CN(Cc2ccc(C3CN(c4c(Cl)cccc4Cl)C3)cn2)C1` [Compound 59, 1-((5-(1-(2,6-dichlorophenyl)azetidin-3-yl)pyridin-2-yl)methyl)-3-methylazetidin-3-ol], the 50% effective concentration (EC50) fell in the range of 100 to 1000 nM.

Consider `CC1(O)CN(Cc2ccc(C3CN(c4c(Cl)cccc4Cl)C3)c(F)c2)C1` [Compound 60, 1-(4-(1-(2,6-dichlorophenyl)azetidin-3-yl)-3-fluorobenzyl)-3-methylazetidin-3-ol], for which the 50% effective concentration (EC50) was in the range of 100 to 1000 nM.

In the case of `CC1(O)CN(Cc2ccc(C3CN(c4c(Cl)cccc4Cl)C3)cc2F)C1` [Compound 61, 1-(4-(1-(2,6-dichlorophenyl)azetidin-3-yl)-2-fluorobenzyl)-3-methylazetidin-3-ol], the EC50 was in the range of 100 to 1000 nM.

For `Cc1cc(N2CC(c3c(Cl)cccc3Cl)C2)c(C)cc1CN1CC(C)(O)C1` [Compound 62, 1-(4-(3-(2,6-dichlorophenyl)azetidin-1-yl)-2,5-dimethylbenzyl)-3-methylazetidin-3-ol], the concentration for a half-maximal effect (EC50) lay within 1 to 10 nM.

For the molecule `Cc1cc(CN2CC(C)(O)C2)cc(C)c1N1CC(c2c(Cl)cccc2Cl)C1` [Compound 63, 1-(4-(3-(2,6-dichlorophenyl)azetidin-1-yl)-3,5-dimethylbenzyl)-3-methylazetidin-3-ol], the concentration giving a half-maximal response (EC50) was 1 to 10 nM.

In the case of `CC1(O)CN(Cc2ccc(N3CC(c4c(Cl)cccc4Cl)C3)nc2)C1` [Compound 64, 1-((6-(3-(2,6-dichlorophenyl)azetidin-1-yl)pyridin-3-yl)methyl)-3-methylazetidin-3-ol], the EC50 was 100 to 1000 nM.

As for `CC1(O)CN(Cc2ccc(N3CC(c4c(Cl)cccc4Cl)C3)cc2F)C1` [Compound 65, 1-(4-(3-(2,6-dichlorophenyl)azetidin-1-yl)-2-fluorobenzyl)-3-methylazetidin-3-ol], the EC50 is 10 to 100 nM.

`CC1(O)CN(Cc2ccc(N3CC(c4c(Cl)cccc4Cl)C3)cn2)C1` [Compound 66, 1-((5-(3-(2,6-dichlorophenyl)azetidin-1-yl)pyridin-2-yl)methyl)-3-methylazetidin-3-ol]: the EC50 fell in the range of 100 to 1000 nM.
